Data published in the NIST ThermoML archive (doi:10.1021/je301004f).

What was measured:
[1] = for mass density / viscosity: 101.33 kPa, Liquid; for mass density: Vibrating tube method; for viscosity: Falling or rolling sphere viscometry
[2] = refractive index (Na D-line) (dimensionless); settings: 101.33 kPa, Liquid, Standard Abbe refractometry

CCCCCCCC/C=C\CCCCCCCCn1cc[n+](C)c1.O=S(=O)([N-]S(=O)(=O)C(F)(F)F)C(F)(F)F
Settings	mass density [kg/m3]	refractive index	viscosity [mPa·s]
[1], 273.15 K	1210.9	–	–
[1], 278.15 K	–	–	1005.3
[1], 283.15 K	1202.62	–	698.6
[1], 288.15 K	–	–	492.9
[1], 293.15 K	1194.49	–	355.7
[1], 298.15 K	–	–	263.5
[1], 303.15 K	1186.39	–	222.85
[1], 313.15 K	1178.38	–	133.94
[1], 323.15 K	1170.38	–	85.97
[1], 333.15 K	1162.47	–	58.09
[1], 343.15 K	1154.57	–	41.09
[2], 283.2 K	–	1.4576	–
[2], 293.2 K	–	1.4545	–
[2], 298.2 K	–	1.4528	–
[2], 303.2 K	–	1.4511	–
[2], 313.2 K	–	1.4479	–
[2], 323.2 K	–	1.4446	–
[2], 333.2 K	–	1.441	–
[2], 343.2 K	–	1.4379	–

Settings	Normal melting temperature [°C]
[1], Crystal, DTA	-20.8
